Test results published in the supplement of paper PMC10307832.

Compound: CO[C@@H]1[C@H](N(C)C(=O)c2ccccc2)C[C@H]2O[C@]1(C)n1c3ccccc3c3c4c(c5c6ccccc6n2c5c31)C(=O)NC4 [Midostaurin] + CC(C)C[C@H](NC(=O)[C@H](Cc1ccccc1)NC(=O)c1cnccn1)B(O)O [Bortezomib] (partner 0.002 µM)
Assay: relative viability (nuclei count vs DMSO), 5 days (fraction); higher = more cells survive
Settings: first compound 0.1 µM
How it was run: (§1)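 Lung cancer cell lines in 1536-well plates got either a single drug or a fixed anchor-drug dose together with five library-drug doses (not always all listed) in √10 steps, by pin tool, on the day after seeding. Nuclei were counted after 5 days, and relative viability is the treated-to-vehicle ratio of nuclei counts. Values are medians of duplicate plates.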

Question: For NCI-H2087, which relative viability is on record?
Answer: 0.542

Question: How did the relative viability turn out when H3255 was run?
Answer: 0.731

Question: For LOU-NH91, which relative viability is on record?
Answer: 0.529

Question: For ChaGo-K-1, which relative viability is on record?
Answer: 0.759

Question: With NCI-H2405 as the cell line, how does the relative viability read?
Answer: 0.979

Question: With HOP-62 as the cell line, how does the relative viability read?
Answer: 0.635

Question: With HCC-44 as the cell line, how does the relative viability read?
Answer: 0.796

Question: How did the relative viability turn out when LU99A was run?
Answer: 1.1

Question: How did the relative viability turn out when BEN was run?
Answer: 0.909

Question: HARA was tested. Which relative viability did it give?
Answer: 1.07

Question: With HCC-78 as the cell line, how does the relative viability read?
Answer: 0.474

Question: How did the relative viability turn out when NCI-H322M was run?
Answer: 1.17

Question: Which relative viability does the source give for LCLC-97TM1 here?
Answer: 0.419

Question: For A-427, which relative viability is on record?
Answer: 0.992

Question: How did the relative viability turn out when NCI-H441 was run?
Answer: 0.392

Question: NCI-H1734 was tested. Which relative viability did it give?
Answer: 0.915

Question: With NCI-H460 as the cell line, how does the relative viability read?
Answer: 1.01

Question: Which relative viability does the source give for NCI-H2347 here?
Answer: 0.956

Question: How did the relative viability turn out when 201T was run?
Answer: 1.05

Question: How did the relative viability turn out when NCI-H1915 was run?
Answer: 0.968

Question: With HCC-827 as the cell line, how does the relative viability read?
Answer: 0.992

Question: With LXF-289 as the cell line, how does the relative viability read?
Answer: 0.967

Question: How did the relative viability turn out when NCI-H23 was run?
Answer: 0.923

Question: With NCI-H647 as the cell line, how does the relative viability read?
Answer: 0.876

Question: With NCI-H1651 as the cell line, how does the relative viability read?
Answer: 1.02

Question: EPLC-272H was tested. Which relative viability did it give?
Answer: 1.05

Question: NCI-H1792 was tested. Which relative viability did it give?
Answer: 0.911

Question: With NCI-H1355 as the cell line, how does the relative viability read?
Answer: 1.31

Question: NCI-H3122 was tested. Which relative viability did it give?
Answer: 1.04

Question: For NCI-H1437, which relative viability is on record?
Answer: 0.478

Same assay, conditions: first compound 0.3162 µM

Question: With NCI-H2087 as the cell line, how does the relative viability read?
Answer: 0.841

Question: H3255 was tested. Which relative viability did it give?
Answer: 0.789

Question: How did the relative viability turn out when LOU-NH91 was run?
Answer: 0.528

Question: ChaGo-K-1 was tested. Which relative viability did it give?
Answer: 1.12

Question: NCI-H2405 was tested. Which relative viability did it give?
Answer: 1.01

Question: HOP-62 was tested. Which relative viability did it give?
Answer: 1.17

Question: How did the relative viability turn out when HCC-44 was run?
Answer: 0.762

Question: For LU99A, which relative viability is on record?
Answer: 0.998

Question: BEN was tested. Which relative viability did it give?
Answer: 1.09

Question: For HARA, which relative viability is on record?
Answer: 1.12

Question: Which relative viability does the source give for HCC-78 here?
Answer: 0.328

Question: Which relative viability does the source give for NCI-H322M here?
Answer: 1.34

Question: LCLC-97TM1 was tested. Which relative viability did it give?
Answer: 0.595

Question: A-427 was tested. Which relative viability did it give?
Answer: 0.899

Question: For NCI-H441, which relative viability is on record?
Answer: 0.442

Question: With NCI-H1734 as the cell line, how does the relative viability read?
Answer: 0.786

Question: How did the relative viability turn out when NCI-H460 was run?
Answer: 1.1

Question: NCI-H2347 was tested. Which relative viability did it give?
Answer: 0.976

Question: With 201T as the cell line, how does the relative viability read?
Answer: 1.13

Question: For NCI-H1915, which relative viability is on record?
Answer: 0.993

Question: How did the relative viability turn out when HCC-827 was run?
Answer: 1.07

Question: How did the relative viability turn out when LXF-289 was run?
Answer: 0.974

Question: NCI-H23 was tested. Which relative viability did it give?
Answer: 1.06

Question: For NCI-H647, which relative viability is on record?
Answer: 0.765

Question: Which relative viability does the source give for NCI-H1651 here?
Answer: 1.03

Question: For EPLC-272H, which relative viability is on record?
Answer: 1.11

Question: How did the relative viability turn out when NCI-H1792 was run?
Answer: 0.949

Question: For NCI-H1355, which relative viability is on record?
Answer: 1.26

Question: How did the relative viability turn out when NCI-H3122 was run?
Answer: 1.02

Question: How did the relative viability turn out when NCI-H1437 was run?
Answer: 0.545

Compound: CO[C@@H]1[C@H](N(C)C(=O)c2ccccc2)C[C@H]2O[C@]1(C)n1c3ccccc3c3c4c(c5c6ccccc6n2c5c31)C(=O)NC4 [Midostaurin] + CC(=O)Nc1cccc(-n2c(=O)n(C3CC3)c(=O)c3c(Nc4ccc(I)cc4F)n(C)c(=O)c(C)c32)c1 [Trametinib] (partner 0.02 µM)
Assay: as above
Settings: first compound 0.01 µM
How it was run: as §1

Question: With NCI-H2087 as the cell line, how does the relative viability read?
Answer: 0.178

Question: For H3255, which relative viability is on record?
Answer: 0.61

Question: LOU-NH91 was tested. Which relative viability did it give?
Answer: 0.758

Question: For ChaGo-K-1, which relative viability is on record?
Answer: 0.949

Question: With NCI-H2405 as the cell line, how does the relative viability read?
Answer: 0.615

Question: Which relative viability does the source give for HOP-62 here?
Answer: 0.473

Question: For HCC-44, which relative viability is on record?
Answer: 1.05

Question: With LU99A as the cell line, how does the relative viability read?
Answer: 0.592

Question: How did the relative viability turn out when BEN was run?
Answer: 1.05

Question: Which relative viability does the source give for HARA here?
Answer: 0.994

Question: Which relative viability does the source give for HCC-78 here?
Answer: 0.757

Question: NCI-H322M was tested. Which relative viability did it give?
Answer: 0.483

Question: With LCLC-97TM1 as the cell line, how does the relative viability read?
Answer: 0.266

Question: Which relative viability does the source give for A-427 here?
Answer: 0.671

Question: Which relative viability does the source give for NCI-H441 here?
Answer: 0.418

Question: NCI-H1734 was tested. Which relative viability did it give?
Answer: 0.625

Question: For NCI-H460, which relative viability is on record?
Answer: 0.176

Question: For NCI-H2347, which relative viability is on record?
Answer: 0.29

Question: How did the relative viability turn out when 201T was run?
Answer: 0.714

Question: For NCI-H1915, which relative viability is on record?
Answer: 0.329

Question: How did the relative viability turn out when HCC-827 was run?
Answer: 0.557

Question: Which relative viability does the source give for LXF-289 here?
Answer: 0.687

Question: With NCI-H23 as the cell line, how does the relative viability read?
Answer: 0.369

Question: Which relative viability does the source give for NCI-H647 here?
Answer: 0.491

Question: Which relative viability does the source give for NCI-H1651 here?
Answer: 0.81

Question: For EPLC-272H, which relative viability is on record?
Answer: 0.352

Question: How did the relative viability turn out when NCI-H1792 was run?
Answer: 0.508

Question: With NCI-H1355 as the cell line, how does the relative viability read?
Answer: 0.413

Question: Which relative viability does the source give for NCI-H3122 here?
Answer: 0.244

Question: NCI-H1437 was tested. Which relative viability did it give?
Answer: 0.615

Same assay, conditions: first compound 0.03162 µM

Question: For NCI-H2087, which relative viability is on record?
Answer: 0.221

Question: With H3255 as the cell line, how does the relative viability read?
Answer: 0.608

Question: LOU-NH91 was tested. Which relative viability did it give?
Answer: 0.717

Question: With ChaGo-K-1 as the cell line, how does the relative viability read?
Answer: 0.963

Question: How did the relative viability turn out when NCI-H2405 was run?
Answer: 0.562

Question: With HOP-62 as the cell line, how does the relative viability read?
Answer: 0.42

Question: Which relative viability does the source give for HCC-44 here?
Answer: 1.01

Question: LU99A was tested. Which relative viability did it give?
Answer: 0.558

Question: BEN was tested. Which relative viability did it give?
Answer: 0.976

Question: How did the relative viability turn out when HARA was run?
Answer: 0.663

Question: Which relative viability does the source give for HCC-78 here?
Answer: 0.612

Question: Which relative viability does the source give for NCI-H322M here?
Answer: 0.567

Question: For LCLC-97TM1, which relative viability is on record?
Answer: 0.194

Question: How did the relative viability turn out when A-427 was run?
Answer: 0.809

Question: NCI-H441 was tested. Which relative viability did it give?
Answer: 0.373

Question: NCI-H1734 was tested. Which relative viability did it give?
Answer: 0.678

Question: Which relative viability does the source give for NCI-H460 here?
Answer: 0.174

Question: How did the relative viability turn out when NCI-H2347 was run?
Answer: 0.278

Question: 201T was tested. Which relative viability did it give?
Answer: 0.707

Question: NCI-H1915 was tested. Which relative viability did it give?
Answer: 0.312

Question: How did the relative viability turn out when HCC-827 was run?
Answer: 0.488

Question: With LXF-289 as the cell line, how does the relative viability read?
Answer: 0.653

Question: How did the relative viability turn out when NCI-H23 was run?
Answer: 0.441

Question: Which relative viability does the source give for NCI-H647 here?
Answer: 0.593

Question: How did the relative viability turn out when NCI-H1651 was run?
Answer: 0.804

Question: For EPLC-272H, which relative viability is on record?
Answer: 0.304

Question: How did the relative viability turn out when NCI-H1792 was run?
Answer: 0.37

Question: NCI-H1355 was tested. Which relative viability did it give?
Answer: 0.459

Question: For NCI-H3122, which relative viability is on record?
Answer: 0.191

Question: NCI-H1437 was tested. Which relative viability did it give?
Answer: 0.502

Same assay, conditions: first compound 0.1 µM

Question: With NCI-H2087 as the cell line, how does the relative viability read?
Answer: 0.187

Question: For H3255, which relative viability is on record?
Answer: 0.656

Question: How did the relative viability turn out when LOU-NH91 was run?
Answer: 0.814

Question: For ChaGo-K-1, which relative viability is on record?
Answer: 0.806

Question: Which relative viability does the source give for NCI-H2405 here?
Answer: 0.61

Question: With HOP-62 as the cell line, how does the relative viability read?
Answer: 0.362

Question: For HCC-44, which relative viability is on record?
Answer: 1.06

Question: LU99A was tested. Which relative viability did it give?
Answer: 0.421

Question: For BEN, which relative viability is on record?
Answer: 1.06

Question: For HARA, which relative viability is on record?
Answer: 0.887

Question: HCC-78 was tested. Which relative viability did it give?
Answer: 0.739

Question: NCI-H322M was tested. Which relative viability did it give?
Answer: 0.536

Question: Which relative viability does the source give for LCLC-97TM1 here?
Answer: 0.195

Question: How did the relative viability turn out when A-427 was run?
Answer: 0.712

Question: With NCI-H441 as the cell line, how does the relative viability read?
Answer: 0.516

Question: NCI-H1734 was tested. Which relative viability did it give?
Answer: 0.691

Question: How did the relative viability turn out when NCI-H460 was run?
Answer: 0.116

Question: How did the relative viability turn out when NCI-H2347 was run?
Answer: 0.309

Question: With 201T as the cell line, how does the relative viability read?
Answer: 0.755

Question: For NCI-H1915, which relative viability is on record?
Answer: 0.258

Question: Which relative viability does the source give for HCC-827 here?
Answer: 0.607

Question: For LXF-289, which relative viability is on record?
Answer: 0.671

Question: With NCI-H23 as the cell line, how does the relative viability read?
Answer: 0.285

Question: How did the relative viability turn out when NCI-H647 was run?
Answer: 0.552

Question: Which relative viability does the source give for NCI-H1651 here?
Answer: 0.795

Question: With EPLC-272H as the cell line, how does the relative viability read?
Answer: 0.28

Question: With NCI-H1792 as the cell line, how does the relative viability read?
Answer: 0.383

Question: Which relative viability does the source give for NCI-H1355 here?
Answer: 0.477

Question: NCI-H3122 was tested. Which relative viability did it give?
Answer: 0.214
